Data reported in patent US9351947B2, “Use of catecholamines and related compounds as anti-angiogenic agents” (National Research Council of Canada, priority 2007, dated 2016).

What was measured:
[1] = 58 μg/kg intravenously, dogs; cited from earlier work
[2] = topical administration of up to 20%, human eye; cited from earlier work
[3] = humans, cited from earlier work
[4] = Optical stability (racemization) in eye drop formulations, 10 days at 55° C., chiral HPLC; type: physicochemical; details: for % optical purity: 1.7 mg/mL, pH 6.0, starting material 99.90%
Method: The optical isomers of (S)-isoproterenol bitartrate and (S)-isoproterenol dipivalate hydrochloride were separated by HPLC using Shiseido chiral CD-Ph column (250×4.6 mm; 5 μm; isocratic 60:40 of 0.5 M sodium perchlorate/water and acetonitrile; flow rate, 1.0 mL/min). The elution profile was monitored by the absorption at 223 nm for isoproterenol bitartrate and 264 nm for isoproterenol dipivalate hydrochloride. The optical impurities were quantitated by the absorbance at 223 nm for isoproterenol bitartrate and 264 nm for isoproterenol dipivalate hydrochloride and by using a curve fitting software TABLECurve2D (Systat). The impurities of (R)-isoproterenol bitartrate and (R)-isoproterenol dipivalate hydrochloride were estimated as […], respectively. Thus, the racemization induced during synthesis and purification was minimal, if it occurred.
Table 2 describes the optical purities of (S)-isoproterenol and (S)-isoproterenol dipivalate after incubation in various eye drop formulations for 10 days at 55° C. and compared with those before incubation. The incubation for 10 days at 55° C. corresponds to the incubation for 167 days at 22° C.

[5] = Body weight of rats with eye drop treatment; type: in vivo, Sprague-Dawley rats
Description: Prevention of diabetic retinopathy by (S)-isoproterenol […] drop was studied using a rat model. […] Animal weights were monitored every week.

[6] = mouse, in vivo, iv; cited from earlier work
[7] = Groups I vs II and III vs IV
Method: Two-month-old male Sprague-Dawley rats were purchased from Charles River, Canada. They were housed in the Biotechnology Research Institute (BRI)-animal facility. […] Diabetes was induced in male Sprague-Dawley rats weighing approximately 200 to 250 g by a single intraperitoneal injection of the beta-cell toxin, Streptozotocin (STZ) (Sigma, St. Louis, Mich.), at a dose of 60 mg/kg body weight in 0.1M citrate buffer pH 4.5. Non-diabetic control rats received citrate buffer only.
One week following induction of diabetes, glucose levels were determined in the blood sampled from the tail vein using a blood glucose monitoring system (Ascensia ELITE Blood Glucose Meter, Bayer Inc, Toronto, ON, Canada). Since the limit of detection of the blood glucose meter was 33 mM, any value above that has been assigned a maximum value of 35 mM. Only animals with blood glucose levels higher than 15 mM were retained in the study.
Eye drops or vehicle were administered twice a day, seven days a week, on the cornea of different groups of rats, with a minimum interval of 7 h between the two treatments. To promote weight gain and limit hyperglycemia, diabetic rats were injected sub-cutaneously with 2 IU ultralente insulin (Humulin, Eli Lilly, Toronto, ON, Canada) three times a week. Animal weights were monitored every week.

[8] = large intravenous dose; cited from earlier work
HUVECs [9] = test: Invasion of HUVECs through Matrigel-coated filter (Matrigel Invasion Chambers); type: cell-based, human
Method: HUVECs were purchased from Cedarlane Laboratories (Burlington, Canada) and maintained in Endothelial Cell Basal Medium-2 (EBM-2) supplemented with EGM-2 growth factor mixture (Clonetics) and 2% Foetal bovine serum. The cells were cultured at 37° C. under a humidified 95%/5% (v/v) mixture of air and CO2. Invasion of endothelial cells was measured using BD BioCoatTM Growth Factor Reduced MatrigelTM Invasion Chambers (Beckton-Dickinson; […]). EBM-2 medium (500 μL each) was placed into the lower wells. HUVECs (2.5×10^4) in EBM-2 serum-free medium (500 μL) were seeded into each of the upper wells and incubated in the presence of a test compound. HUVECs were allowed to migrate for 36 h at 37° C. in an atmosphere of 95% air/5% CO2. HUVECs that remained on the upper surface of the filter were removed using a cotton swab. HUVECs that had migrated to the lower surface of the filters were fixed with methanol, stained with 0.1% crystal violet/20% (v/v) methanol and examined using a Leitz Labovert (Leitz, Wetzlar, Germany) inverted microscope after mounting on a slide. Three randomly selected microscopic fields were digitally captured using a Nikon […] 995 digital camera and the number of HUVECs in each photograph were directly counted. Each reported value represents the average and standard deviation of a total […] from two independent experiments.

[10] = 17.6% eye drop, rabbit; cited from earlier work
HUVECs [11] = test: Matrigel endothelial cell capillary-tube formation assay; type: cell-based, human
Method: HUVECs were purchased from Cedarlane Laboratories (Burlington, Canada) and maintained in Endothelial Cell Basal Medium-2 (EBM-2) supplemented with EGM-2 growth factor mixture (Clonetics) and 2% Foetal bovine serum. The cells were cultured at 37° C. under a humidified 95%/5% (v/v) mixture of air and CO2.
Matrigel endothelial cell tube formation assays were performed using BD Matrigel™ (Becton, Dickinson). BD Matrigel™ was thawed at 4° C., and 150 μL were quickly added to each well of a 48-well plate and allowed to solidify for 60 min at 37° C. HUVECs (7×10^4 cells/mL) In EC basal medium-2 (EBM-2) were seeded 250 μL per well onto the surface of the solid BD Matrigel™ in the presence of the compounds to be tested. The cells were incubated for 22 h at […] in a 5% CO2 incubator. Tube formation was monitored by using a Leitz Labovert (Leitz, Wetzlar, Germany) inverted microscope. Two randomly selected two microscopic fields were photographed with a digital camera (Nikon, COOLPICKS 995). The total length of tube structures in each photograph was measured using ImageJ™ free software (http://rsb.info.nih.gov/ij/) and was normalized to that of control with no test compound. Each reported value represents the average of total six photographs from three independent experiments.

CC(C)NCC(O)c1ccc(OC(=O)C(C)(C)C)c(OC(=O)C(C)(C)C)c1 (racemic) [(R,S)-isoproterenol dipivalate]
cardiovascular responses [1]: the same responses as those of (R,S)-isoproterenol

CC(C)NC[C@@H](O)c1ccc(O)c(O)c1.Cl [(S)-isoproterenol hydrochloride]
lowering of intra-ocular pressure [2]: did not show any indication to lower intra-ocular pressure

CC(C)NC[C@@H](O)c1ccc(O)c(O)c1 [(S)-isoproterenol]
side effects of topically applied 10% solution ([3]; 10%, topical): brief mild conjunctival hyperemia and irritation | side effects of 20% eye drop ([3]; 20% eye drop): marked conjunctival hyperemia and mild miosis that persisted for several hours | conversion to the (R)-isoform ([4]; 10 days at 55° C.): 2.55% | % optical purity ([4]; 10 days at 55° C., NaCl 8 mg/mL, Benzalkonium chloride 0.04 mg/mL, Tween 80 2.5 mg/mL): 96.68% | % optical purity ([4]; 10 days at 55° C., Povidone 2 mg/mL, Benzalkonium chloride 0.04 mg/mL, D-Mannitol 54.7 mg/mL): 97.90% | % optical purity ([4]; 10 days at 55° C., Povidone 2 mg/mL, D-Mannitol 54.7 mg/mL, Chlorobutanol 1 mg/mL, 2-hydroxypropyl cyclodextrin 10.1 mg/mL): 97.56% | % optical purity ([4]; 10 days at 55° C., Povidone 2 mg/mL, NaCl 8 mg/mL, Benzalkonium chloride 0.04 mg/mL, 2-hydroxypropyl cyclodextrin 10.1 mg/mL): 97.26% | average optical purity after incubating 10 days at 55° C. ([4]; average over the eye drop formulations): 97.35±0.52% | optical purity after 655 days of storage at room temperature ([4]; extrapolated, from 99.90%): 90% | effect on weight gain/loss ([5]; diabetic rats, Group IV vs Group III): no effect | effect on weight gain/loss ([5]; non-diabetic rats, Group II vs Group I): no effect | LD50 [6]: 113 ± 5 mg/kg | effect on the blood glucose level and diabetes [7]: does not affect | effects on blood pressure and pulse rate [8]: only slight and transient effects | reduction of the invasion of HUVECs in Matrigel (HUVECs [9]; 20 μM): 60% | Activity (anti-invasion) (HUVECs [9]; measured at 20 μM, HUVECs): Anti-invasive | systemic effects (heart rate, blood pressure, hematologic or serum chemistry values, necropsy) [10]: no systemic effects | anti-angiogenic activity at 95% w/w optical purity (HUVECs [11]; 95% w/w optically pure, total isoproterenol 20 μM, FIG. 3): in the transition from non-antianglogenic to anti-angiogenic | potency (inhibition of capillary tube formation) (HUVECs [11]; angiogenic assay condition used in FIG. 1, 1-50 μM, 22 h): around 10 μM | Activity (anti-angiogenicity) (HUVECs [11]; measured at 20 μM, HUVECs on Matrigel, 22 h): anti-angiogenic activity | optical purity of (S)-isoproterenol at which anti-angiogenic activity was observed (HUVECs [11]; various ratios of (S)- and (R)-isoproterenol, total 20 μM, FIG. 3): at least 97 % w/w
